Source: PMC11544888, “Sustainable Primary Cell Banking for Topical Compound Cytotoxicity Assays: Protocol Validation on Novel Biocides and Antifungals for Optimized Burn Wound Care” (European Burn Journal, 2024)
Converted amounts (≈) assume the structure as drawn.

Assays:
[1] = system: cultured cells (HaCaT keratinocytes, primary dermal fibroblasts, ASCs); experiment: In vitro cytotoxicity model overall (cell type not given); assay type: cell-based, human
Procedure: All of the samples were prepared on the day of the assays. Each product/stock solution was diluted with CfM or CAM until the desired concentration ranges were obtained for the in vitro cytotoxicity assessments, based on OECD recommendations (i.e., with serial dilutions). The tested CLX- and HOCl-based biocides were used as received, apart from dilution with cell culture medium. To perform the cytotoxicity assays, WCB II vials of primary cells and vials of control cell lines (i.e., HaCaT keratinocytes) were thawed and were expanded to confluency. The cells were then harvested and seeded in 24-well plates at densities of 3 × 10^3 and 6 × 10^3 cells/well. The cultures were maintained for 7 days as described previously. The test items were then dispensed in the wells of the culture plates, following dilution in CfM or CAM. The Vashe® source was tested for cytotoxicity at final HOCl concentrations of 786-6290 μM. The Brio® source was tested for cytotoxicity at final HOCl concentrations of 596-4766 μM. The CLX source was tested for cytotoxicity at final concentrations of 0.2-1978 μM. […] The retained test item experimental concentrations were selected based on the OECD […] guideline and on high-throughput screening principles. After 48 h of cell treatment with the test items, the solutions were removed and a 10% solution of CellTiter® (Promega, Madison, WI, USA) in CfM or CAM was added in every well for assessment of cellular viability. The plates were then placed in the incubator for 90 min. The solutions were transferred to a 96-well plate and were analyzed on a Varioskan LUX 3020 spectrophotometer (ThermoFisher Scientific, Waltham, MA, USA) at 490 nm with agitation. Following the cytotoxicity model validation in 24-well plates, the same procedure was used for optimization and upscaling in 96-well plates. The culture plates were seeded with 5 × 10^3 cells/well (i.e., for primary cells) and 10^4 cells/well (i.e., for HaCaT keratinocytes) in a CfM volume of 100 μL per well. […]

[2] = system: most medically relevant test strains of yeast; design: method as in PMID 27088128, PMID 27645246; conditions: cited from earlier work
HaCaT keratinocytes = experiment: In vitro cytotoxicity assay (CellTiter viability) in HaCaT keratinocytes; assay type: cell-based, human; conditions: 48 h treatment
Procedure: (§1) All of the samples were prepared on the day of the assays. Each product/stock solution was diluted with CfM or CAM until the desired concentration ranges were obtained for the in vitro cytotoxicity assessments, based on OECD recommendations (i.e., with serial dilutions). The tested CLX- and HOCl-based biocides were used as received, apart from dilution with cell culture medium.
(§2) To perform the cytotoxicity assays, WCB II vials of primary cells and vials of control cell lines (i.e., HaCaT keratinocytes) were thawed and were expanded to confluency. The cells were then harvested and seeded in 24-well plates at densities of 3 × 10^3 and 6 × 10^3 cells/well. The cultures were maintained for 7 days as described previously. The test items were then dispensed in the wells of the culture plates, following dilution in CfM or CAM. […] Regarding the AR-12 antifungal compound, cytotoxicity was assessed for a concentration range of 0.27–139 µM. […]
(§3) After 48 h of cell treatment with the test items, the solutions were removed and a 10% solution of CellTiter® (Promega, Madison, WI, USA) in CfM or CAM was added in every well for assessment of cellular viability. […] The solutions were transferred to a 96-well plate and were analyzed on a Varioskan LUX 3020 spectrophotometer (ThermoFisher Scientific, Waltham, MA, USA) at 490 nm with agitation. […]

[3] = system: adipose-derived stem cells (ASC); experiment: In vitro cytotoxicity assay (CellTiter viability) in polydactyly-derived ASCs; assay type: cell-based, human
Procedure: as §1, §2, §3

[4] = system: primary dermal fibroblasts; experiment: In vitro cytotoxicity assay (CellTiter viability) in polydactyly-derived primary dermal fibroblasts; assay type: cell-based, human
Procedure: All of the samples were prepared on the day of the assays. Each product/stock solution was diluted with CfM or CAM until the desired concentration ranges were obtained for the in vitro cytotoxicity assessments, based on OECD recommendations (i.e., with serial dilutions). The tested CLX- and HOCl-based biocides were used as received, apart from dilution with cell culture medium. To perform the cytotoxicity assays, WCB II vials of primary cells and vials of control cell lines (i.e., HaCaT keratinocytes) were thawed and were expanded to confluency. The cells were then harvested and seeded in 24-well plates at densities of 3 × 10^3 and 6 × 10^3 cells/well. The cultures were maintained for 7 days as described previously. The test items were then dispensed in the wells of the culture plates, following dilution in CfM or CAM. The Vashe® source was tested for cytotoxicity at final HOCl concentrations of 786-6290 μM. The Brio® source was tested for cytotoxicity at final HOCl concentrations of 596-4766 μM. The CLX source was tested for cytotoxicity at final concentrations of 0.2-1978 μM. […] The solutions were transferred to a 96-well plate and were analyzed on a Varioskan LUX 3020 spectrophotometer (ThermoFisher Scientific, Waltham, MA, USA) at 490 nm with agitation. […]

For `OCl` [HOCl, hypochlorous acid], the “comparative in vitro cytotoxicity” value ([1]; Figures 4-6) was “less toxicity than CLX” and the “dose showing in vitro cytotoxicity” value ([1]; in vitro data gathered herein, 50 times lower than 100–200 ppm in-use doses) was 4 µg/mL.
With `[H]/N=C(\N/C(=N/[H])NCCCCCCNC(=N)NC(=N)Nc1ccc(Cl)cc1)Nc1ccc(Cl)cc1` [CLX, chlorhexidine] the “dilution needed to avoid toxicity in cultured cells” value ([1]; human, 48 h) was 10- and 100.
For `NCC(=O)Nc1ccc(-n2nc(C(F)(F)F)cc2-c2ccc3c(ccc4ccccc43)c2)cc1` [AR-12], the MIC [2] is listed as 8 µM (≈ 3.68 µg/mL), the IC50 (HaCaT keratinocytes) is listed as 9.96 ± 0.35 µM and the cytotoxicity values [3] is listed as 4 to 8 µg/mL. For the same compound, the cytotoxicity values [4] was 4 to 8 µg/mL and the IC50 ([4]; 48 h treatment, CellTiter viability) was 10.7 ± 0.27 µM.
